Patent US4921850A, “3-propenylcephem derivative” (Eisai Co., Ltd., priority 1986, dated 1990)
Values after ≈ are worked out from the molar mass of the structure shown. Where two headings read alike, the source gives them in different places.

Experiments:
Test in all cases: Anti-bacterial activity (MIC), agar dilution
Assay type in all cases: cell-based
Escher. coli NIHJ = settings: Escher. coli NIHJ, agar dilution, about 10^6 CFU/ml, 18 hours, 37° C.
Method: (§1) MIC (μg/ml) were determined by an agar dilution method [Chemotherapy (Japan), 29, 76-79, 1981]. Overnight cultures of the bacterial strains in Mueller-Hinton broth were diluted to final concentration of about 10^6 CFU/ml, and 5 μl of each bacterial suspension was spotted onto Mueller-Hinton agar plates that contained twofold serial dilutions of antibiotics. MICs were measured after incubation for 18 hours at 37° C.

Kleb. pneumoniae EK-6 = settings: Kleb. pneumoniae EK-6, agar dilution, about 10^6 CFU/ml, 18 hours, 37° C.
Method: as §1

[1] = test system: Morganella morganii EP-14; settings: about 10^6 CFU/ml, 37° C.
Method: as §1

Pseud. aeruginosa EP-01 = settings: Pseud. aeruginosa EP-01, agar dilution, about 10^6 CFU/ml, 18 hours, 37° C.
Method: as §1

Ser. marcescens ES-75 = settings: Ser. marcescens ES-75, agar dilution, about 10^6 CFU/ml, 18 hours, 37° C.
Method: as §1

Staph. aureus 209-P = settings: Staph. aureus 209-P, agar dilution, about 10^6 CFU/ml, 18 hours, 37° C.
Method: as §1

[2] = Escherichia coli, 18 h, read-out: MIC
[3] = Klebsiella pneumoniae, EK6, 18 h, read-out: MIC
[4] = Morganella morganii, EP14, 18 h, read-out: MIC
[5] = Pseudomonas aeruginosa, EP01, 18 h, read-out: MIC
[6] = Serratia marcescens, ES75, 18 h, read-out: MIC
[7] = Staphylococcus aureus, 209P, 18 h, read-out: MIC

MIC (Escher. coli NIHJ; [2])	MIC (Kleb. pneumoniae EK-6; [3])	MIC [1, 4]	MIC (Pseud. aeruginosa EP-01; [5])	MIC (Ser. marcescens ES-75; [6])	MIC (Staph. aureus 209-P; [7])	MIC (Escher. coli NIHJ)	MIC (Kleb. pneumoniae EK-6)	MIC ([1]; 18 hours)	MIC (Pseud. aeruginosa EP-01)	MIC (Ser. marcescens ES-75)	MIC (Staph. aureus 209-P)	Structure (SMILES)
0.05 µg/mL (≈ 0.0875 µM)	≤ 0.025 µg/mL	0.05 µg/mL (≈ 0.0875 µM)	1.56 µg/mL (≈ 2.73 µM)	0.1 µg/mL (≈ 0.175 µM)	0.2 µg/mL (≈ 0.35 µM)	–	–	–	–	–	–	Nc1nc(/C(=N/OCF)C(=O)N[C@@H]2C(=O)N3C(C(=O)[O-])=C(/C=C/C[N+]4(CCO)CCOCC4)CS[C@H]23)ns1 [Example 37]
0.1 µg/mL (≈ 0.166 µM)	0.05 µg/mL (≈ 0.0831 µM)	0.1 µg/mL (≈ 0.166 µM)	1.56 µg/mL (≈ 2.59 µM)	0.2 µg/mL (≈ 0.332 µM)	0.4 µg/mL (≈ 0.665 µM)	–	–	–	–	–	–	Nc1nc(/C(=N/OCF)C(=O)N[C@@H]2C(=O)N3C(C(=O)[O-])=C(/C=C/C[N+]4(CC(O)CO)CCOCC4)CS[C@H]23)ns1 (stereo partly drawn) [Example 38]
0.05 µg/mL (≈ 0.0854 µM)	≤ 0.025 µg/mL	0.05 µg/mL (≈ 0.0854 µM)	1.56 µg/mL (≈ 2.66 µM)	0.1 µg/mL (≈ 0.171 µM)	0.2 µg/mL (≈ 0.342 µM)	–	–	–	–	–	–	CC(O)C[N+]1(C/C=C/C2=C(C(=O)[O-])N3C(=O)[C@@H](NC(=O)/C(=N\OCF)c4nsc(N)n4)[C@H]3SC2)CCOCC1 (stereo partly drawn) [Example 39]
≤ 0.025 µg/mL	≤ 0.025 µg/mL	≤ 0.025 µg/mL	0.8 µg/mL (≈ 1.28 µM)	≤ 0.025 µg/mL	0.4 µg/mL (≈ 0.639 µM)	–	–	–	–	–	–	NC(=O)C[N+]1(C/C=C/C2=C(C(=O)[O-])N3C(=O)[C@@H](NC(=O)/C(=N\OCF)c4nsc(N)n4)[C@H]3SC2)CCC(C(N)=O)CC1 (stereo partly drawn) [Example 40]
≤ 0.025 µg/mL	0.05 µg/mL (≈ 0.0819 µM)	≤ 0.025 µg/mL	1.56 µg/mL (≈ 2.55 µM)	≤ 0.025 µg/mL	0.2 µg/mL (≈ 0.328 µM)	–	–	–	–	–	–	Nc1nc(/C(=N/OCF)C(=O)N[C@@H]2C(=O)N3C(C(=O)[O-])=C(/C=C/C[N+]4(CCO)CC=C(C=NO)CC4)CS[C@H]23)ns1 (stereo partly drawn) [Example 42]
≤ 0.025 µg/mL	≤ 0.025 µg/mL	≤ 0.025 µg/mL	0.8 µg/mL (≈ 1.31 µM)	≤ 0.025 µg/mL	0.2 µg/mL (≈ 0.328 µM)	–	–	–	–	–	–	NC(=O)C1=CC[N+](C/C=C/C2=C(C(=O)[O-])N3C(=O)[C@@H](NC(=O)/C(=N\OCF)c4nsc(N)n4)[C@H]3SC2)(CCO)CC1 (stereo partly drawn) [Example 43]
0.05 µg/mL (≈ 0.092 µM)	≤ 0.025 µg/mL	0.05 µg/mL (≈ 0.092 µM)	1.56 µg/mL (≈ 2.87 µM)	0.1 µg/mL (≈ 0.184 µM)	0.4 µg/mL (≈ 0.736 µM)	–	–	–	–	–	–	CC[N+](C)(C/C=C/C1=C(C(=O)[O-])N2C(=O)[C@@H](NC(=O)/C(=N\OCF)c3nsc(N)n3)[C@H]2SC1)CCO (stereo partly drawn) [Example 44]
≤ 0.025 µg/mL	≤ 0.025 µg/mL	≤ 0.025 µg/mL	0.8 µg/mL (≈ 1.49 µM)	0.1 µg/mL (≈ 0.186 µM)	0.4 µg/mL (≈ 0.743 µM)	–	–	–	–	–	–	CC[N+](C)(CC#N)C/C=C/C1=C(C(=O)[O-])N2C(=O)[C@@H](NC(=O)/C(=N\OCF)c3nsc(N)n3)[C@H]2SC1 (stereo partly drawn) [Example 45]
0.05 µg/mL (≈ 0.0793 µM)	0.05 µg/mL (≈ 0.0793 µM)	0.05 µg/mL (≈ 0.0793 µM)	1.56 µg/mL (≈ 2.47 µM)	0.05 µg/mL (≈ 0.0793 µM)	0.4 µg/mL (≈ 0.634 µM)	–	–	–	–	–	–	CC(=O)NCC[N+](C/C=C/C1=C(C(=O)[O-])N2C(=O)[C@@H](NC(=O)/C(=N\OCF)c3nsc(N)n3)[C@H]2SC1)(CCO)CCO [Example 51]
0.05 µg/mL (≈ 0.092 µM)	0.05 µg/mL (≈ 0.092 µM)	0.05 µg/mL (≈ 0.092 µM)	0.8 µg/mL (≈ 1.47 µM)	0.1 µg/mL (≈ 0.184 µM)	0.8 µg/mL (≈ 1.47 µM)	–	–	–	–	–	–	C[N+](C)(C/C=C/C1=C(C(=O)[O-])N2C(=O)[C@@H](NC(=O)/C(=N\OCF)c3nsc(N)n3)[C@H]2SC1)NC(N)=O [Example 53]
≤ 0.025 µg/mL	≤ 0.025 µg/mL	≤ 0.025 µg/mL	0.4 µg/mL (≈ 0.719 µM)	≤ 0.025 µg/mL	0.2 µg/mL (≈ 0.359 µM)	–	–	–	–	–	–	CNC(=O)C[N+](C)(C)C/C=C/C1=C(C(=O)[O-])N2C(=O)[C@@H](NC(=O)/C(=N\OCF)c3nsc(N)n3)[C@H]2SC1 [Example 55]
0.05 µg/mL (≈ 0.0876 µM)	0.05 µg/mL (≈ 0.0876 µM)	0.05 µg/mL (≈ 0.0876 µM)	1.56 µg/mL (≈ 2.73 µM)	0.1 µg/mL (≈ 0.175 µM)	0.4 µg/mL (≈ 0.701 µM)	–	–	–	–	–	–	CN(C)C(=O)C[N+](C)(C)C/C=C/C1=C(C(=O)[O-])N2C(=O)[C@@H](NC(=O)/C(=N\OCF)c3nsc(N)n3)[C@H]2SC1 [Example 56]
≤ 0.025 µg/mL	0.05 µg/mL (≈ 0.0876 µM)	0.05 µg/mL (≈ 0.0876 µM)	1.56 µg/mL (≈ 2.73 µM)	0.05 µg/mL (≈ 0.0876 µM)	0.2 µg/mL (≈ 0.35 µM)	–	–	–	–	–	–	CNC(=O)[C@H](C)[N+](C)(C)C/C=C/C1=C(C(=O)[O-])N2C(=O)[C@@H](NC(=O)/C(=N\OCF)c3nsc(N)n3)[C@H]2SC1 [Example 58]
≤ 0.025 µg/mL	≤ 0.025 µg/mL	≤ 0.025 µg/mL	1.56 µg/mL (≈ 2.73 µM)	≤ 0.025 µg/mL	0.4 µg/mL (≈ 0.701 µM)	–	–	–	–	–	–	CNC(=O)[C@@H](C)[N+](C)(C)C/C=C/C1=C(C(=O)[O-])N2C(=O)[C@@H](NC(=O)/C(=N\OCF)c3nsc(N)n3)[C@H]2SC1 [Example 59]
≤ 0.025 µg/mL	0.05 µg/mL (≈ 0.0834 µM)	≤ 0.025 µg/mL	1.56 µg/mL (≈ 2.6 µM)	≤ 0.025 µg/mL	0.2 µg/mL (≈ 0.334 µM)	–	–	–	–	–	–	C[N+](C)(C/C=C/C1=C(C(=O)[O-])N2C(=O)[C@@H](NC(=O)/C(=N\OCF)c3nsc(N)n3)[C@H]2SC1)[C@@H](CC(N)=O)C(N)=O [Example 60]
0.1 µg/mL (≈ 0.167 µM)	0.05 µg/mL (≈ 0.0834 µM)	0.1 µg/mL (≈ 0.167 µM)	1.56 µg/mL (≈ 2.6 µM)	0.05 µg/mL (≈ 0.0834 µM)	0.4 µg/mL (≈ 0.667 µM)	–	–	–	–	–	–	C[N+](C)(C/C=C/C1=C(C(=O)[O-])N2C(=O)[C@@H](NC(=O)/C(=N\OCF)c3nsc(N)n3)[C@H]2SC1)[C@H](CC(N)=O)C(N)=O [Example 61]
≤ 0.025 µg/mL	≤ 0.025 µg/mL	≤ 0.025 µg/mL	0.4 µg/mL (≈ 0.699 µM)	≤ 0.025 µg/mL	0.2 µg/mL (≈ 0.349 µM)	–	–	–	–	–	–	C[N+](C)(C/C=C/C1=C(C(=O)[O-])N2C(=O)[C@@H](NC(=O)/C(=N\OCF)c3nsc(N)n3)[C@H]2SC1)[C@@H](CO)C(N)=O [Example 62]
≤ 0.025 µg/mL	0.05 µg/mL (≈ 0.083 µM)	≤ 0.025 µg/mL	0.8 µg/mL (≈ 1.33 µM)	≤ 0.025 µg/mL	0.4 µg/mL (≈ 0.664 µM)	–	–	–	–	–	–	C[N+](C)(C/C=C/C1=C(C(=O)[O-])N2C(=O)[C@@H](NC(=O)/C(=N\OCF)c3nsc(N)n3)[C@H]2SC1)[C@H](CO)C(=O)NCO [Example 63]
≤ 0.025 µg/mL	≤ 0.025 µg/mL	≤ 0.025 µg/mL	0.8 µg/mL (≈ 1.51 µM)	0.1 µg/mL (≈ 0.189 µM)	0.2 µg/mL (≈ 0.378 µM)	–	–	–	–	–	–	C[N+](C)(C/C=C/C1=C(C(=O)[O-])N2C(=O)[C@@H](NC(=O)/C(=N\OCF)c3nsc(N)n3)[C@H]2SC1)CCO [Example 64]
≤ 0.025 µg/mL	≤ 0.025 µg/mL	≤ 0.025 µg/mL	0.8 µg/mL (≈ 1.47 µM)	0.05 µg/mL (≈ 0.092 µM)	0.4 µg/mL (≈ 0.736 µM)	–	–	–	–	–	–	CC(O)C[N+](C)(C)CC=CC1=C(C(=O)[O-])N2C(=O)C(NC(=O)C(=NOCF)c3nsc(N)n3)C2SC1 (stereo not drawn) [Example 65]
–	–	–	–	–	–	≤ 0.025 µg/mL	≤ 0.025 µg/mL	≤ 0.025 µg/mL	0.8 µg/mL (≈ 1.47 µM)	≤ 0.025 µg/mL	0.4 µg/mL (≈ 0.736 µM)	CC(O)C[N+](C)(C)CC=CC1=C(C(=O)[O-])N2C(=O)C(NC(=O)C(=NOCF)c3nsc(N)n3)C2SC1 (stereo not drawn) [Example 66]
≤ 0.025 µg/mL	≤ 0.025 µg/mL	≤ 0.025 µg/mL	0.8 µg/mL (≈ 1.47 µM)	≤ 0.025 µg/mL	0.2 µg/mL (≈ 0.368 µM)	–	–	–	–	–	–	C[C@H](CO)[N+](C)(C)C/C=C/C1=C(C(=O)[O-])N2C(=O)[C@@H](NC(=O)/C(=N\OCF)c3nsc(N)n3)[C@H]2SC1 [Example 68]
≤ 0.025 µg/mL	≤ 0.025 µg/mL	≤ 0.025 µg/mL	0.8 µg/mL (≈ 1.43 µM)	0.05 µg/mL (≈ 0.0897 µM)	0.2 µg/mL (≈ 0.359 µM)	–	–	–	–	–	–	CC(C)(CO)[N+](C)(C)C/C=C/C1=C(C(=O)[O-])N2C(=O)[C@@H](NC(=O)/C(=N\OCF)c3nsc(N)n3)[C@H]2SC1 [Example 69]
≤ 0.025 µg/mL	≤ 0.025 µg/mL	≤ 0.025 µg/mL	0.8 µg/mL (≈ 1.36 µM)	0.1 µg/mL (≈ 0.17 µM)	0.1 µg/mL (≈ 0.17 µM)	–	–	–	–	–	–	C[N+](C)(C/C=C/C1=C(C(=O)[O-])N2C(=O)[C@@H](NC(=O)/C(=N\OCF)c3nsc(N)n3)[C@H]2SC1)C(CO)(CO)CO [Example 70]
